Usually LC50 stands for the concentration lethal to half of the exposed cells or organisms. High values mean lower toxicity, low ones greater toxicity. As usually defined, the mortality is the percentage killed.

Values after ≈ are worked out from the molar mass of the structure shown. Values joined by “and” are separate entries in the source; they are usually repeats but may differ in a detail not shown here. Identical values can stand only once. “Also recorded” adds a separate entry of the source. Like-named read-outs stand apart in the source and are kept apart here.

The values that follow come from US6545043B1 (priority 1997, dated 2003).

The subject of series [1] is adult house fly (Musca domestica). Particulars: in vivo.
The subject of series [2] is lesser grain borer (Rhizopertha dominica). Conditions: in vivo.
The test system of series [3] is brine shrimp (Artemia franciscana). Briefly: whole plant or invertebrate.
The test system of series [4] is adult house fly (Musca domestica). Briefly: whole plant or invertebrate. Particulars: topical, 24 h, read-out: Percentage mortality at 24 h.
Series [5] shares this test system. Particulars: in vivo. This is another data set of the same source.
For series [6], the system named is Saw-toothed grain weevil, Oryzaephilus surinamensis. Particulars: in vivo; cited from earlier work.
Series [7] deals with Granary weevil, Sitophilus granarius. Particulars: in vivo; cited from earlier work.
Series [8] has as its system Bean weevil, Acanthoscelides obtectus. Particulars: in vivo; cited from earlier work.
The test system of series [9] is Drugstore beetle, Stegobium paniceum. Conditions: in vivo; cited from earlier work.
Series [10] has as its system Confused flour beetle, Tribolium confusum. Particulars: in vivo; cited from earlier work.
For series [11] the following is noted: in vivo; cited from earlier work.
The test system of series [12] is yellow fever mosquito (Aedes aegypti) larvae. Briefly: whole plant or invertebrate. Conditions: 24 h, read-out: % mortality at 1 ppm.
Series [13] has as its system root-knot nematode (RKN) (Meloidogyne incognita) eggs. Conditions: in vivo.
For series [14] the test system is unchanged. Conditions: in vivo. This is another data set of the same source.
The test system of a further series is weed seeds in soil. Conditions: in vivo.
The test system of series [15] is brine shrimp (Artemia franciscana). Particulars: in vivo.
Series [16] has as its system house fly larvae (M. domestica). Conditions: in vivo; cited from earlier work.
Series [17] relates to five stored products pests (granary weevil, drugstore beetle, confused flour beetle, bean weevil, saw-toothed grain beetle). Particulars: in vivo; cited from earlier work.
Setting [18] is: 24 h, read-out: % Mortality at 1 ppm.

As to `CC(C)C(C)(O)C#N` (stereo not drawn) [3-methylbutanone cyanohydrin], the 50% lethal concentration (LC50) in series [1] and in series [2] was over 20 µg/mL throughout.

In series [3], `CC(C)=CCCC(C)CC(=O)O` (stereo not drawn) [citronellic acid, reference compound] displayed a mortality at 1 ppm of 40%, a mortality at 10 ppm of 65% and a mortality at 100 ppm of 100%. For the same molecule, in series [4], the mortality at 1 µg/fly was determined as 0%, the mortality at 10 µg/fly worked out at 91% and the mortality at 100 µg/fly was 100%.

With `C=C(C)[C@H]1Cc2c(ccc3c2O[C@@H]2COc4cc(OC)c(OC)cc4[C@@H]2C3=O)O1` [rotenone, reference compound], the mortality at 1 ppm in series [3] is 100%.

For the molecule `N#CC(O)/C=C/c1ccccc1` (stereo not drawn) [cinnamyl cyanohydrin], the “effectiveness as topical pesticide” value in series [5] is “relatively weak”. In addition, in series [3], the mortality at 1 ppm came out at 25%, the mortality at 10 ppm was found to be 15% and the mortality at 100 ppm stood at 100%. In [4], the mortality at 6 µg/fly turned out to be 9% and the mortality at 50 µg/fly stood at 100%.

For the molecule `S=C=S` [carbon disulfide], the “LC50 for 6 h” value in series [6] was 40.0 µg/mL; in series [7] it was 43.0 µg/mL; in [8], 29.0 µg/mL; in [9], 42.0 µg/mL; in series [10], 75.0 µg/mL.

Turning to `CC=C(C)C(O)C#N` (stereo not drawn) [2-methyl-2-butenal cyanohydrin], the LC50 in [1] and in series [2] was over 20 µg/mL throughout.

Regarding `COP(=O)(OC)OC=C(Cl)Cl` [dichlorvos, reference compound], the mortality at 1 µg/fly in series [4] is 95%. In [2], this molecule had an LC50 of 0.29 µg/mL (≈ 1.31 µM).

For `C=CC1CNC(=S)O1` (stereo not drawn) [Goitrin, goitrin], in [4], the mortality at 1 µg/fly was 5% and the mortality at 100 µg/fly stood at 5%.

For `CNC(=O)O/N=C/C(C)(C)SC` [Aldicarb], the “mammalian LD50” value in series [11] is reported as 1 mg/kg.

Consider `C=CCN=C=S` [AITC, allyl isothiocyanate], for which the mortality at 1 ppm turned out to be 83% in series [12] and 97% in series [3] (setting [18]). Also, the LC50 in series [1] is 0.13 µg/mL (≈ 1.31 µM); in [2] it was 1.57 µg/mL (≈ 15.8 µM). Moreover, the mortality at 99 µg/fly in series [4] came out at 45%.

As for `C=CC(C#N)OC(C)=O` (stereo not drawn) [CHP-Ace, CHP acetate], the “percent hatch, highest in the 22-day period” value in [13] is on record as at most 42.6%. Also, in [14], the Percent hatch was 0.0% and 5.4% and 5.6% and 0.8% and 1.5% and 4.9% and 5.2% and 5.3%; the “percent hatch, highest in the 22-day observation period” value is on record as at most 5.6%. Besides, in [1], the LC50 came to 0.26 µg/mL and the “times less effective than dichlorvos” value was “about 20 times”. The “Severity (bacteria and fungal colonies formed)” value in the series on soil bacteria is on record as “completely inhibited growth; also recorded: No bacteria or fungal colonies”. Also, in series [4], the mortality at 10 µg/fly worked out at 0% and the mortality at […] is 100%. Further, the LC50 in series [2] was found to be 0.37 µg/mL. For the same molecule, in the series on weed seeds in soil, the “effect on post-emergent weeds (observation)” value is “kill post-emergent weeds”.

On to `CC(C)(O)C#N` [DMK-CNOH, dimethyl ketone cyanohydrin], for which the values for the LC50 in [1] and in [2] were under 0.07 µg/mL and 0.25 µg/mL (≈ 2.94 µM), respectively.

For the molecule `C=CCSC#N` [ATC, allyl thiocyanate], the values for the mortality at 1 ppm in series [12] and in series [3] (setting [18]) were 57% and 47%, respectively. Besides, the “effectiveness as aquatic pesticide” value in [15] is given as “very weak”. In series [4], the mortality at 101 µg/fly amounted to 35%.

Turning to `N#CC(O)c1ccccc1[N+](=O)[O-]` (stereo not drawn) [2-nitromandelonitrile cyanohydrin], the LC50 in [1] and in series [2] was over 20 µg/mL in each case.

Regarding `CC(C)=CCCC(C)CC(O)C#N` (stereo not drawn) [citronellyl cyanohydrin], the “effectiveness as topical pesticide” value in [5] is listed as “not active”. Further, in series [4], the mortality at 6 µg/fly is 14% and the mortality at 50 µg/fly worked out at 10%.

With `C=CC(O)C#N` (stereo not drawn) [CHP, 3-cyano-3-hydroxy-1-propene], the “percent hatch, highest in the 22-day period” value in [13] was at most 19%. The “effectiveness as topical pesticide” value in series [5] was “relatively weak”. For the same molecule, in series [14], the “percent hatch, highest in the 22-day observation period” value is on record as at most 34.4%. The median lethal concentration (LC50) in series [1] was 0.15 µg/mL (≈ 1.81 µM); in series [2], 0.37 µg/mL (≈ 4.45 µM). The mortality at 9.8 µg/fly in [4] was 5%. Also, the mortality at 98 µg/fly in [4] was 100%.

Regarding `CC(C)=CCC/C(C)=C/C(O)C#N` (stereo not drawn) [citryl cyanohydrin], in [5], the “Percentage mortality at 24 h” value is 9% and the “effectiveness as topical pesticide” value was “not active”. In [3], this molecule came in with a mortality at 1 ppm of 0%, a mortality at 10 ppm of 0% and a mortality at 100 ppm of 87%. Moreover, the mortality at 1 µg/fly in series [4] stood at 8%.

For the molecule `C=CC(C#N)OC(=O)CC` (stereo not drawn) [CHP-Pro, CHP propionate], in series [1], the LC50 turned out to be 0.66 µg/mL (≈ 4.74 µM) and the “times less effective than dichlorvos” value is listed as “about 60 times”. For the same molecule, in series [4], the mortality at 9.7 µg/fly amounted to 0% and the mortality at 97 µg/fly was found to be 100%. In addition, in [2], the median lethal concentration (LC50) is 0.70 µg/mL (≈ 5.03 µM) and the “times less effective than dichlorvos” value is given as “about 2.5 times”.

Regarding `CCCC(C)C(O)C#N` (stereo not drawn) [2-methylvaleraldehyde cyanohydrin], the 50% lethal concentration (LC50) in [1] and in series [2] was over 20 µg/mL each time.

With `C=CCC#N` [AC, allyl cyanide], the mortality at 1 ppm in series [12] was found to be 3%; in series [3] (setting [18]) it was 7%. The median lethal concentration (LC50) in series [1] came to 3.66 µg/mL (≈ 54.6 µM); in series [2], 2.8 µg/mL (≈ 41.7 µM). For the same molecule, in series [15], the “effectiveness as aquatic pesticide” value was “very weak”. Moreover, the mortality at 97 µg/fly in series [4] came out at 15%.

As for “methyl ethyl ketone cyanohydrin [MEK-CNOH]”, the LC50 came to 0.09 µg/mL in [1] and 0.27 µg/mL in series [2].

Turning to `C=CC(C#N)OC(=O)/C=C/c1ccccc1` (stereo not drawn) [CHP cinnamate], in [3], the mortality at 1 ppm was found to be 95%, the mortality at 10 ppm is 100% and the mortality at 100 ppm is 100%. The “effectiveness as aquatic pesticide” value in series [15] is given as “moderately toxic”. In [4], the mortality at 1 µg/fly came to 0%, the mortality at 10 µg/fly is about 50% and the mortality at 100 µg/fly came out at 87%.

Consider `CC1(C)C(C=C(Cl)Cl)C1C(=O)OCc1cccc(Oc2ccccc2)c1` (stereo not drawn) [permethrin], for which the mortality result in [16] is “roughly 98%”.

With `O=C(O)C=Cc1ccccc1` [cinnamic acid, reference compound], the “effectiveness as topical pesticide” value in series [5] is reported as “not an effective biopesticide”. In series [3], this molecule returned a mortality at 1 ppm of 30%, a mortality at 10 ppm of 45% and a mortality at 100 ppm of 100%. Moreover, in series [4], the mortality at 1 µg/fly came to 0%, the mortality at 10 µg/fly amounted to 0% and the mortality at 100 µg/fly came to 0%.

Consider `N#CC(O)c1ccccc1` (stereo not drawn) [mandelonitrile], for which the “percent hatch, highest in the 22-day period” value in series [13] is on record as at most 29.7%.

`C=CC(C#N)OC(=O)C(C)(C)C` (stereo not drawn) [CHP-Piv, CHP pivalate] returned an LC50 in series [1] of 1.37 µg/mL (≈ 8.19 µM). In series [4], the mortality at 9.9 µg/fly amounted to 0% and the mortality at 99 µg/fly came out at 80%. This molecule also displayed a 50% lethal concentration (LC50) in series [2] of 2.4 µg/mL (≈ 14.4 µM).

Consider `N#CC1(O)C=CCCC1` (stereo not drawn) [2-cyclohexen-1-one cyanohydrin], for which the LC50 in series [1] and in series [2] was over 20 µg/mL throughout.

As to `CCC(C)C(O)C#N` (stereo not drawn) [2-methylbutyraldehyde cyanohydrin], the LC50 in [1] and in series [2] was over 20 µg/mL each time.

With `C1CO1` [ethylene oxide], the “LC50 for 6 h” value in series [6] is 4.0 µg/mL; in series [7] it was 13.5 µg/mL; in series [8], 10.5 µg/mL; in [9] it was 9.0 µg/mL; in series [10] it was 27.5 µg/mL.

In series [3], `C=CC(C#N)OC(=O)CCCCCCCCC` (stereo not drawn) [CHP decanoate] returned a mortality at 1 ppm of 15%, a mortality at 10 ppm of 95% and a mortality at 100 ppm of 100%. For the same molecule, in [4], the mortality at 1 µg/fly was determined as 0%, the mortality at 10 µg/fly was about 50% and the mortality at 100 µg/fly stood at 100%.

In the case of `CBr` [methyl bromide], the “LC50 for 6 h” value is 4.4 µg/mL in series [6]; 4.8 µg/mL in series [7]; 4.2 µg/mL in series [8]; 4.4 µg/mL in [9]; 9.2 µg/mL in series [10]. Besides, the “LC50 values, range over five stored products pests” value in series [17] is 4.2 to 9.2 µg/mL. Besides, the “Severity of depression of microbial activity” value in the series with soil microbial activity is given as “Slightly Depressed; also recorded: severe depression; also recorded: Severely Depressed”.

Take `C=CC#N` [acrylonitrile]: the “LC50 for 6 h” value was 0.8 µg/mL in [6]; 2.0 µg/mL in series [7]; 1.1 µg/mL in series [8]; 1.7 µg/mL in [9]; 3.0 µg/mL in [10].
